pKd: −log10 of the molar value. Where two headings read alike, the source gives them in different places.
Tests used:
[1] = target: human TYK2 (JH2domain-pseudokinase) (Homo sapiens (Human), UniProt P29597); test: TYK2 JH2 Domain Binding Assay (KINOMEscan)
How it was run: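 The construct was human TYK2 G556–D888 fused to the NFkB DNA-binding domain and expressed in HEK293 cells; unpurified extract was incubated with compound and liganded beads for 1 hour at room temperature.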

Tyk2 kinase domain (DH1) = Tyk2 kinase domain (DH1) (Homo sapiens (Human), UniProt P29597); test: Tyk2 Radioactive Kinase Assay; assay type: biochemical; details: for inhibition at 10 µM: read-out: Tyk2 JH1% Inhibition @ 10 μM
Chain of Tyk2 kinase domain (DH1) (P29597 897-1176): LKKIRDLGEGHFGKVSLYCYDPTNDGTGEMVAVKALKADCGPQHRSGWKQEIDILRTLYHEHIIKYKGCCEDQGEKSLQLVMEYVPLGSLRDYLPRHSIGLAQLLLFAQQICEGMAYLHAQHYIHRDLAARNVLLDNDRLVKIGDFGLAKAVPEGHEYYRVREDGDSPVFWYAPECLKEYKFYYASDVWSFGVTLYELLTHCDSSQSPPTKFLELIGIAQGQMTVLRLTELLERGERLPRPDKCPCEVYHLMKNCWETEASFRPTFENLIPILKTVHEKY
How it was run: (§1)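 Read-out is percent inhibition from a radioactive kinase reaction, measured with compound at 10 μM.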

JAK2 kinase domain (JH1) = JAK2 kinase domain (JH1) (Homo sapiens (Human), UniProt O60674); test: JAK2 Radioactive Kinase Assay; assay type: biochemical; details: for inhibition at 10 µM: read-out: JAK2 JH1% Inhibition @ 10 μM
Chain of JAK2 kinase domain (JH1) (O60674 849-1124): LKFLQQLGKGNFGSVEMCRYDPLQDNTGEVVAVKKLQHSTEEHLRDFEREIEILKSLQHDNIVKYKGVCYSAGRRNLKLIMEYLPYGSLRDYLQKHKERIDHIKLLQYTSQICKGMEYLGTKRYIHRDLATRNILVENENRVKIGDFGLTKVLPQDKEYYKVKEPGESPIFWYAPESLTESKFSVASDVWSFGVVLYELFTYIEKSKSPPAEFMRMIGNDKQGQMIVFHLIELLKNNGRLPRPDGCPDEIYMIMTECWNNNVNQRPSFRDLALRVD
How it was run: as §1

Chain of human TYK2 (JH2domain-pseudokinase) (P29597 556-888): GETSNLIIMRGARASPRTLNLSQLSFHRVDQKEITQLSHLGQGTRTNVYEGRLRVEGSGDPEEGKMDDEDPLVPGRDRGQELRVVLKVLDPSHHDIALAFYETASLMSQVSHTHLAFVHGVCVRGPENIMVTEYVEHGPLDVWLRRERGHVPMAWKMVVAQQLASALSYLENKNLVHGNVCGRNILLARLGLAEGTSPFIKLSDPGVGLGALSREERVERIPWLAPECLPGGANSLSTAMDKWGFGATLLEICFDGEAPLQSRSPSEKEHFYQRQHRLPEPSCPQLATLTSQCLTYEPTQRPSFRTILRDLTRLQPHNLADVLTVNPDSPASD

Row | SMILES | pKd [1] | inhibition at 10 µM (Tyk2 kinase domain (DH1); 10 μM compound, 10 μM ATP) [%] | inhibition at 10 µM (JAK2 kinase domain (JH1); 10 μM compound, 10 μM ATP) [%] | inhibition at 10 µM (Tyk2 kinase domain (DH1); compound at 10 μM, ATP 10 μM) [%] | inhibition at 10 µM (JAK2 kinase domain (JH1); compound at 10 μM, ATP 10 μM) [%] | Tyk2 JH1% Inhibition @ 10 μM (Tyk2 kinase domain (DH1); compound at 10 μM, ATP 10 μM) | JAK2 JH1% Inhibition @ 10 μM (JAK2 kinase domain (JH1); compound at 10 μM, ATP 10 μM)
1 | CNc1cc(Nc2cccn([C@@H]3CCN(CCF)C3)c2=O)nc2c(C(=O)NC3CC3)cnn12 [I-933] | > 9.70 | < 50 | < 50 | – | – | – | –
2 | CNc1cc(Nc2cccn(-c3ccccn3)c2=O)nc2c(C(=O)NCC(C)(C)CO)cnn12 [I-683, N-(3-hydroxy-2,2-dimethylpropyl)-7-(methylamino)-5-((2-oxo-2H-[1,2′-bipyridin]-3-yl)amino)pyrazolo[1,5-a]pyrimidine-3-carboxamide] | > 9.70 | – | – | < 50 | < 50 | – | –
3 | CNc1cc(Nc2cccn([C@H]3CC[C@](C)(OC)CC3)c2=O)nc2c(C(=O)N[C@H]3CC[C@H]3O)cnn12 [I-723, N-((1R,2S)-2-hydroxycyclobutyl)-5-((1-((1R,4R)-4-methoxy-4-methylcyclohexyl)-2-oxo-1,2-dihydropyridin-3-yl)amino)-7-(methylamino)pyrazolo[1,5-a]pyrimidine-3-carboxamide] | 9.00 to 9.70 | – | – | < 50 | < 50 | – | –
4 | CNc1cc(Nc2cccn([C@H]3CCCC[C@H]3OC)c2=O)nc2c(C(=O)NCC3(CO)CC3)cnn12 [I-1047] | 9.00 to 9.70 | < 50 | < 50 | – | – | – | –
5 | CNc1cc(Nc2cccnc2OC2CCCCC2)nc2c(C(=O)NC3CC3)cnn12 [I-221] | 8.00 to 9.00 | – | – | < 50 | < 50 | – | –
6 | CNc1cc(Nc2cccn([C@@H]3CCCC[C@@H]3OC)c2=O)nc2c(C(=O)NC3CC3)cnn12 [I-989] | < 8.00 | < 50 | < 50 | – | – | – | –
7 | CNc1cc(Nc2cccn([C@H]3C[C@@H]3F)c2=O)nc2c(C(=O)NCC3(CO)CC3)cnn12 (stereo in doubt) [I-1061, 5-((1-(2-fluorocyclopropyl)-2-oxo-1,2-dihydropyridin-3-yl)amino)-N-((1-(hydroxymethyl)cyclopropyl)methyl)-7-(methylamino)pyrazolo[1,5-a]pyrimidine-3-carboxamide] | > 9.70 | < 50 | < 50 | – | – | – | –
8 | CNc1cc(Nc2cccn(CC3CCCCO3)c2=O)nc2c(C(=O)NC3CC3)cnn12 (stereo not drawn) [I-364] | > 9.70 | – | – | < 50 | < 50 | – | –
9 | CNc1cc(-c2nn(C3CCOCC3)c3ncccc23)nc2c(C(=O)NC3CC3)cnn12 [I-441] | 9.00 to 9.70 | – | – | < 50 | < 50 | – | –
10 | CNc1cc(-c2cn(CCN3CCOCC3)c3ncccc23)nc2c(C(=O)N[C@@H]3CC[C@@H]3O)cnn12 [I-678] | 9.00 to 9.70 | – | – | < 50 | < 50 | – | –
11 | CNc1cc(Nc2cc(F)cn([C@@H]3CCCOC3)c2=O)nc2c(C(=O)NC3CC3)cnn12 [I-533] | > 9.70 | – | – | < 50 | < 50 | – | –
12 | NC(=O)c1cnn2c(N)cc(Nc3cccn([C@H]4CC[C@H](O)CC4)c3=O)nc12 [I-50] | 9.00 to 9.70 | – | – | < 50 | < 50 | – | –
13 | CNc1cc(Nc2cccn([C@@H]3CCC[C@H](OC)C3)c2=O)nc2c(C(=O)NCC3(CO)CC3)cnn12 [I-929] | > 9.70 | < 50 | < 50 | – | – | – | –
14 | CNc1cc(Nc2cccn(C3CCOCC3)c2=O)nc2c(C(=O)NCC(C)CO)cnn12 (stereo not drawn) [I-649] | > 9.70 | – | – | < 50 | < 50 | – | –
15 | CO[C@H]1C[C@@H](Oc2ncc(Cl)cc2Nc2cc(N)n3ncc(C(N)=O)c3n2)C1 [I-97] | 8.00 to 9.00 | – | – | < 50 | < 50 | – | –
16 | CNc1cc(-c2cn(CCN3CCN(C)CC3)c3ncccc23)nc2c(C(=O)N[C@@H]3CC[C@@H]3O)cnn12 [I-907, N-((1R,2S)-2-hydroxycyclobutyl)-7-(methylamino)-5-(1-(2-(4-methylpiperazin-1-yl)ethyl)-1H-pyrrolo[2,3-b]pyridin-3-yl)pyrazolo[1,5-a]pyrimidine-3-carboxamide] | 9.00 to 9.70 | < 50 | < 50 | – | – | – | –
17 | CNc1cc(-c2cn(CCN3CCOCC3)c3ncccc23)nc2c(C(=O)N[C@@H]3CC[C@@H]3O)cnn12 [I-779] | 9.00 to 9.70 | – | – | – | – | A (percent inhibition at 10 μM lower than 50) | A (percent inhibition at 10 μM lower than 50)
18 | CNc1cc(Nc2cccn(-c3cccc(F)c3)c2=O)nc2c(C(=O)NC[C@H](C)CO)cnn12 [I-1034] | > 9.70 | < 50 | < 50 | – | – | – | –

Row | SMILES | pKd [1] | inhibition at 10 µM (Tyk2 kinase domain (DH1); 10 μM compound, 10 μM ATP) [%] | inhibition at 10 µM (JAK2 kinase domain (JH1); 10 μM compound, 10 μM ATP) [%] | inhibition at 10 µM (Tyk2 kinase domain (DH1); compound at 10 μM, ATP 10 μM) [%] | inhibition at 10 µM (JAK2 kinase domain (JH1); compound at 10 μM, ATP 10 μM) [%] | Tyk2 JH1% Inhibition @ 10 μM (Tyk2 kinase domain (DH1); compound at 10 μM, ATP 10 μM) | JAK2 JH1% Inhibition @ 10 μM (JAK2 kinase domain (JH1); compound at 10 μM, ATP 10 μM)
19 | CNc1cc(Nc2cc(Cl)cnc2OC2CCOC2)nc2c(C(N)=O)cnn12 (stereo not drawn) [I-71] | > 9.70 | – | – | < 50 | < 50 | – | –
20 | CNc1cc(Nc2cc(C)nc(N3CCCC3)c2)nc2c(C(N)=O)cnn12 [I-27] | 8.00 to 9.00 | – | – | < 50 | < 50 | – | –
21 | CNc1cc(Nc2cccc([C@H]3CCCOC3)n2)nc2c(C(=O)N[C@@H]3COC[C@@H]3O)cnn12 [I-691] | 8.00 to 9.00 | – | – | – | – | A (percent inhibition at 10 μM lower than 50) | A (percent inhibition at 10 μM lower than 50)
22 | CNc1cc(Nc2cc(F)cnc2OCCOC)nc2c(C(=O)NC3CC3)cnn12 [I-286] | 9.00 to 9.70 | – | – | < 50 | < 50 | – | –
23 | CNc1cc(-c2nn(C3CCOC3)c3ncccc23)nc2c(C(=O)NC3CC3)cnn12 (stereo not drawn) [I-443] | 9.00 to 9.70 | – | – | < 50 | < 50 | – | –
24 | CNc1cc(Nc2cccn(CCOC3CC3)c2=O)nc2c(C(=O)N[C@@H]3CC[C@@H]3O)cnn12 [I-516] | 8.00 to 9.00 | – | – | – | – | A (percent inhibition at 10 μM lower than 50) | A (percent inhibition at 10 μM lower than 50)
25 | CNc1cc(Nc2cccn([C@H]3CC[C@]4(CCCO4)CC3)c2=O)nc2c(C(=O)NC3CC3)cnn12 [I-1109] | > 9.70 | < 50 | < 50 | – | – | – | –
26 | CNc1cc(Nc2cccc([C@H]3CCCOC3)n2)nc2c(C(=O)NC3CC3)cnn12 [I-549] | > 9.70 | – | – | < 50 | < 50 | – | –
27 | CNc1cc(Nc2cccn([C@@H]3C[C@H]3F)c2=O)nc2c(C(=O)N[C@H]3CC[C@H]3O)cnn12 [I-1089] | > 9.70 | < 50 | < 50 | – | – | – | –
28 | CNc1cc(-c2ccn(-c3ccccc3)n2)nc2c(C(N)=O)cnn12 [I-39, 7-(methylamino)-5-(1-phenyl-1H-pyrazol-3-yl)pyrazolo[1,5-a]pyrimidine-3-carboxamide] | 8.00 to 9.00 | – | – | < 50 | < 50 | – | –
29 | CNc1cc(Nc2cccn([C@@H]3CCCC[C@@H]3O)c2=O)nc2c(C(=O)NC3CC3)cnn12 [I-671] | > 9.70 | – | – | < 50 | < 50 | – | –
30 | CNc1cc(Nc2cccnc2O[C@H]2CC[C@H](OC)CC2)nc2c(C(=O)N[C@H]3C[C@H]3F)cnn12 [I-249] | > 9.70 | – | – | < 50 | < 50 | – | –
31 | CNc1cc(Nc2cc(C)cnc2OC(C)C)nc2c(C(=O)NC3CCC3)cnn12 [I-213] | 8.00 to 9.00 | – | – | < 50 | < 50 | – | –
32 | CNc1cc(Nc2cccn(-c3cc(C)nn3C)c2=O)nc2c(C(=O)NC3CC3)cnn12 [I-340] | 9.00 to 9.70 | – | – | < 50 | < 50 | – | –
33 | CNc1cc(Nc2cccn(C3=NC(C)(C)CS3)c2=O)nc2c(C(=O)N[C@@H]3C[C@@H]3F)cnn12 [I-526] | 9.00 to 9.70 | – | – | < 50 | < 50 | – | –
34 | CNc1cc(Nc2cccn(C3CCN(C)CC3)c2=O)nc2c(C(=O)N[C@H]3CC[C@H]3O)cnn12 [I-689] | 9.00 to 9.70 | – | – | < 50 | < 50 | – | –
35 | CNc1cc(Nc2cccn([C@H]3CCC[C@@H](OC)C3)c2=O)nc2c(C(=O)N[C@H]3CC[C@@H]3O)cnn12 [I-1124] | > 9.70 | < 50 | < 50 | – | – | – | –

— patent US10508120B2, “TYK2 inhibitors and uses thereof” (Nimbus Lakshmi, Inc., priority 2017, dated 2019)
